This is an account of results in patent US20150361139A1, “CRYSTALLINE FORM OF LINACLOTIDE” (SANDOZ AG, priority 2013, published 2015).

Structures are written as SMILES. Where two headings read alike, the source gives them in different places. Peptide text beside a SMILES is read from it.

For data set [1] the following is noted: 40° C./75% RH, according to U.S. Pat. No. 8,222,201 (WO 2010/059733), cited from earlier work.
A short description of data set [2]: Stability tests: solid stored in open vials at 40° C./75% RH, purity by HPLC. The data set is classed as physicochemical. As to conditions: for Normalised purity: 40° C./75% RH, open vial. The method, then:
The purity of solid samples was measured in area percentage by HPLC analysis using the method reported below:
Approximately 10 mg of material was placed in each vial (ea. 1.5 mL, open, clear glass vial).
Three vials were placed into a beaker which was then stored in a sealed desiccator containing a sodium chloride solution which keeps a constant 75% RH. The desiccator was placed into an oven at 40° C.
One vial at a time was taken out after 7 days, 14 days and 1 month and analysed.
Ovens were temperature monitored using calibrated thermometers with min and max temperatures recorded throughout the stability study.

As for `C[C@@H]1NC(=O)[C@@H]2CCCN2C(=O)[C@H](CC(N)=O)NC(=O)[C@@H]2CSSC[C@H](N)C(=O)N[C@H]3CSSC[C@H](NC1=O)C(=O)N[C@@H]([C@@H](C)O)C(=O)NCC(=O)N[C@H](C(=O)N[C@@H](Cc1ccc(O)cc1)C(=O)O)CSSC[C@H](NC(=O)[C@H](Cc1ccc(O)cc1)NC(=O)[C@H](CCC(=O)O)NC3=O)C(=O)N2` [Form Alpha, Linaclotide] (HELM PEPTIDE1{C.C.E.Y.C.C.N.P.A.C.T.G.C.Y}$PEPTIDE1,PEPTIDE1,1:R3-6:R3|PEPTIDE1,PEPTIDE1,2:R3-10:R3|PEPTIDE1,PEPTIDE1,5:R3-13:R3$$$V2.0), the Normalised purity is 100% in data set [1] (Day 7), 94.8% in data set [1] (Day 14) and 91.9% in data set [1] (Month 1).
`C[C@@H]1NC(=O)[C@@H]2CCCN2C(=O)[C@H](CC(N)=O)NC(=O)[C@@H]2CSSC[C@H](N)C(=O)N[C@H]3CSSC[C@H](NC1=O)C(=O)N[C@@H]([C@@H](C)O)C(=O)NCC(=O)N[C@H](C(=O)N[C@@H](Cc1ccc(O)cc1)C(=O)O)CSSC[C@H](NC(=O)[C@H](Cc1ccc(O)cc1)NC(=O)[C@H](CCC(=O)O)NC3=O)C(=O)N2` [Form II, Linaclotide] (HELM PEPTIDE1{C.C.E.Y.C.C.N.P.A.C.T.G.C.Y}$PEPTIDE1,PEPTIDE1,1:R3-6:R3|PEPTIDE1,PEPTIDE1,2:R3-10:R3|PEPTIDE1,PEPTIDE1,5:R3-13:R3$$$V2.0): the Normalised purity in data set [2] (Day 7) was determined as 100%; in data set [2] (Day 14), 100%; in data set [2] (Month 1), 98.9%. Moreover, the “Susceptibility to degradation (chemical stability) compared with form alpha” value in data set [2] (open atmosphere of 75% RH and 40° C.) is listed as “less susceptible to degradation than form alpha”.
